The results in this text go back to US7671028B2, “Peptides that antagonize FPR class receptor mediated signaling” (POSTECH Foundation, priority 2004, dated 2010).

Where a SMILES comes first, the peptide text is derived from it. Where no end group is shown, it is not given here. [ ]: non-standard residue; d: D form. Bounds are passed on as bounds.

The target of assay [1] is T1, FPRL1 (Homo sapiens, UniProt P25090).
T1 construct: expressed in transfected cells; host or cells: RBL-2H3 (rat basophilic leukaemia) cells
T1 sequence (P25090 1-351): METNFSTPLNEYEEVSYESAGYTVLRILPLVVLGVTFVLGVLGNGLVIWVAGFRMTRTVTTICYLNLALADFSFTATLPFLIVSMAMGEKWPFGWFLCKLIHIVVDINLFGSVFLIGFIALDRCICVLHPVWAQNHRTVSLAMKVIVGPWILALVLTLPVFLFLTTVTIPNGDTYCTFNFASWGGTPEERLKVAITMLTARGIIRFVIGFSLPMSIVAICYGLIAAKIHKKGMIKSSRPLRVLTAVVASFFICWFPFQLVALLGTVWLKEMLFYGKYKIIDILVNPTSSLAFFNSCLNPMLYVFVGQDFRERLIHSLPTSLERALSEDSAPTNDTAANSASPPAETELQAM
As to the kind of experiment: WKYMVm-induced [Ca2+]i increase in FPRL1-expressing RBL-2H3 cells (fura-2). It counts as cell-based. To be noted: inhibition of FPRL1 agonist-induced intracellular calcium increase; peptide added before agonist. On the procedure: FIGS. 3A-3B show effects of WRW^4 (SEQ ID NO:4) on the WKYMVm (SEQ ID NO:3)-induced [Ca^2+]i rise in FPRL1 expressing RBL-2H3 cells. Fura-2-loaded FPRL1-expressing RBL-2H3 cells were stimulated with vehicle or WRW^4 (SEQ ID NO:4) (10 μM) and then with WKYMVm (SEQ ID NO:3) (10 nM); or FPRL1-expressing RBL-2H3 cells were sensitized with DNP-specific IgE, loaded with fura-2, and activated with the antigen DNP-HSA (1 μg/ml). The changes in 340 nm/380 nm were monitored. The results are representative of three independent experiments (A). Cells were stimulated with various concentrations of WRW^4 (SEQ ID NO:4) prior to adding 10 nM of WKYMVm (SEQ ID NO:3) or 1 μg/ml of DNP-HSA. Peak levels of [Ca^2+]i increase were monitored. The results shown are the means±SE of four independent experiments (B).
Intracellular calcium concentration ([Ca^2+]i) levels were determined by Grynkiewicz's method using fura-2/AM (25). Briefly, prepared cells were incubated with 3 μM fura-2/AM at 37° C. for 50 min in fresh serum free RPMI 1640 medium with continuous stirring. For DNP-HSA stimulation, RBL-2H3 cells were sensitized with 1 μg/ml mouse DNP-specific IgE overnight prior to fura-2 loading (26), and 2×10^6 cells were aliquoted for each assay in Ca^2+ free Locke's solution (154 mM NaCl, 5.6 mM KCl, 1.2 mM MgCl2, 5 mM HEPES, pH 7.3, 10 mM glucose, and 0.2 mM EGTA). The fluorescence changes at excitation wavelengths of 340 nm and 380 nm and a common emission wavelength of 500 nm were measured, and the calibrated fluorescence ratio was converted to [Ca^2+]i.
The stimulation of FPRL1 by WKYMVm (SEQ ID NO:3) elicited a [Ca^2+]i increase in FPRL1-expressing RBL-2H3 cells (FIG. 3A). To investigate whether the inventive peptides inhibited WKYMVm (SEQ ID NO:3)-induced [Ca^2+]i increase, we stimulated fura-2 loaded FPRL1-expressing RBL-2H3 cells with various concentrations of WRW^4 (SEQ ID NO:4), and subsequently stimulated with effective concentration of WKYMVm (SEQ ID NO:3). […] To confirm specific inhibition by WRW^4 (SEQ ID NO:4) on FPRL1-induced signaling, we examined the effect of WRW^4 (SEQ ID NO:4) on another extracellular signal-induced [Ca^2+]i increase. FcεRI cross-linking has been reported to induce a [Ca^2+]i increase in RBL-2H3 cells (26). Stimulation of FPRL1-expressing RBL-2H3 cells (sensitized with 1 μg/ml mouse DNP-specific IgE) with 1 μg/ml DNP-HSA caused a dramatic increase in [Ca^2+]i (FIG. 3A).
Methods and principles of assaying for the effects of a set of diverse peptides on the intracellular concentration of calcium when the peptides are contacted with the cells bearing FPRL1 before the FPRL1 agonist is added is described in Example 1.5 above, and further details of initial experimentation using the peptides is described in Example 2.2.
(In general: Calcium flux is commonly read through the fluorescence of an indicator in the cells.)

The subject of assay [2] is human neutrophils. As to the kind of experiment: Superoxide generation in human neutrophils (cytochrome c reduction). It counts as cell-based. To be noted: agonist alone, concentration-dependent. Here is the method: FIGS. 7A-7D show effects of WRW^4 (SEQ ID NO:4) on the Aβ42-induced superoxide generation and chemotaxis in human neutrophils. […] Cytochrome c reduction was monitored, as described in EXAMPLES. The results shown are representative of four independent experiments (A, B). Chemotaxis assays were performed using a modified Boyden chamber assay, as described in EXAMPLES. […] The data are presented as mean±SE of three independent experiments each performed in duplicate (C, D).
Superoxide anion generation was determined by measuring cytochrome c reduction using a microtiter 96 well plate ELISA reader (Bio-Tekinstruments, EL312e, Winooski, Vt.) as previously described (23). Human neutrophils (1×10^6 cells/100 μl of RPMI 1640 medium per well of a 96-well plate) were preincubated with 50 μM cytochrome c at 37° C. for 1 min and then incubated with the indicated concentrations of peptides. Superoxide generation was determined for the change in light absorption at 550 nm over 5 minutes at 1 min intervals.
Superoxide generation is one of the important functions of phagocytic leukocytes like neutrophils (28).

As for `N=C(N)NCCC[C@H](NC(=O)[C@@H](N)Cc1c[nH]c2ccccc12)C(=O)N[C@@H](Cc1c[nH]c2ccccc12)C(N)=O` [SEQ ID NO:7] (H-Trp-Arg-Trp-NH2), in assay [1], the IC50 (usually the point on the concentration scale where inhibition reaches its midpoint) was more than 10 µM.

Consider `NC(=O)[C@@H](Cc1c[nH]c2ccccc12)NC(=O)[C@H](Cc1c[nH]c2ccccc12)NC(=O)[C@H](Cc1c[nH]c2ccccc12)NC(=O)[C@H](Cc1c[nH]c2ccccc12)NC(=O)[C@H](Cc1c[nH]c2ccccc12)NC(=O)[C@@H](N)Cc1c[nH]c2ccccc12` [SEQ ID NO:32] (H-WWWWW[dW]-NH2), for which, in assay [1], the IC50 was more than 10 µM.

In the case of `N=C(N)NCCC[C@H](NC(=O)[C@@H](N)Cc1c[nH]c2ccccc12)C(=O)N[C@@H](Cc1c[nH]c2ccccc12)C(=O)N[C@@H](Cc1c[nH]c2ccccc12)C(N)=O` [SEQ ID NO:34] (H-WRWW-NH2), the IC50 in assay [1] was more than 10 µM.

For `NC(=O)[C@@H](Cc1c[nH]c2ccccc12)NC(=O)[C@H](Cc1c[nH]c2ccccc12)NC(=O)[C@H](Cc1c[nH]c2ccccc12)NC(=O)[C@@H](N)Cc1c[nH]c2ccccc12` [SEQ ID NO:35] (H-WWW[dW]-NH2), in assay [1], the IC50 was more than 10 µM.

For `N=C(N)NCCC[C@H](N)C(=O)N[C@@H](Cc1c[nH]c2ccccc12)C(=O)N[C@@H](Cc1c[nH]c2ccccc12)C(=O)N[C@H](Cc1c[nH]c2ccccc12)C(N)=O` [SEQ ID NO:36] (H-RWW[dW]-NH2), the IC50 in assay [1] is more than 10 µM.

In the case of `CSCC[C@H](NC(=O)[C@H](Cc1c[nH]c2ccccc12)NC(=O)[C@H](Cc1c[nH]c2ccccc12)NC(=O)[C@H](CCCNC(=N)N)NC(=O)[C@H](Cc1c[nH]c2ccccc12)NC(=O)[C@H](N)Cc1c[nH]c2ccccc12)C(N)=O` [wWRWWM] (H-[dW]WRWWM-NH2), the half-maximal inhibitory concentration (IC50) in assay [1] came to 0.0082 ± 0.0006 µM.

Take “Aβ42: amyloid β42 peptide, cleavage fragment of amyloid precursor protein, endogenous ligand for FPRL1”: the “peptide concentration of maximal superoxide generating effect” value in assay [2] was 40 µM.

For the compound “H-WRWWWW-NH2 [SEQ ID NO:4, Trp-Arg-Trp-Trp-Trp-Trp-CONH2]”, the IC50 in assay [1] amounted to 1 ± 0.21 µM.

Regarding WRRWWW-NH2 [SEQ ID NO:33], the IC50 in assay [1] was more than 10 µM.

Take WWWWWW-NH2 [SEQ ID NO:31]: the IC50 in assay [1] is more than 10 µM.
